Reference: US20090312408A1, “ISOFLAVAN AND ISOFLAVENE COMPOUNDS AND THEIR USE AS ANGIOGENESIS INHIBITORS” (priority 2006, published 2009)

Tests used:
[1] = tested on: Bovine Microvascular Endothelial (BME) cells; assay: In vitro angiogenesis assay (tube formation in 3D collagen gel); assay type: cell-based; conditions: 50 μM, pictures after 7 days
Method: Collagen was solubilized from rat tail tendons essentially as described by Strom and Michalopoulos, Methods Enzymol 82: 544-555, 1982 and Dharmsathaphorn and Madara, Methods Enzymol. 192: 354-389, 1990. In order to prepare collagen gel, 8 volumes of a cold collagen solution from rat tail tendons (approximately 1.5 mg/ml) were quickly mixed with 1 volume of 10× minimal essential medium (MEM) without bicarbonate and 1 volume of sodium bicarbonate (11.76 mg/ml) on ice. F47 or DMSO was added at final concentration of 50 μM and the mixture was quickly dispensed into 2.00 cm^2-tissue culture wells and it was polymerized at 37° C. for 10 min (Montesano et al., J. Cell Biol. 97: 1648-1652, 1983). Bovine Microvascular Endothelial (BME) cells were seeded onto collagen gel in 500 μl of D-MEM supplemented with 10% Donkey Calf Serum (DCS), 1% glutamine and 1% penicillin-streptomycin, containing F47 (50 μM) or DMSO (control sample). The cells were left at 37° C. for 90-120 min to be attached. Following that, the medium was removed and a second layer of 200 μl of collagen mixture, containing F47 (50 μM) or DMSO, was added on the top. Again, collagen was allowed to polymerize at 37° C. for 10 min. Finally, 500 μl of medium, containing either F47 (50 μM) or DMSO, was added on the top. The ultimate layer of the medium was changed every 2 days renewing thus F47 or DMSO. Pictures were taken after 7 days. […]

HUVECs = assay: Endothelial cell survival/apoptosis, FACS analysis (sub-G1 DNA content); assay type: cell-based, Human; conditions: serum-starved HUVECs (5% FCS), F47 10 μM, 15 hr
Method: (§1) Human endothelial cells from umbilical vein (HUVEC) were plated on dishes pre-coated with rat collagen type I (Becton Dickinson Biosciences) and cultured in M199 medium supplemented with 20% fetal calf serum, FCS, 50 ng/ml endothelial cell growth supplement (ECGS, Sigma), heparin […] (Sigma) and 1% penicillin-streptomycin. All media and sera for cell culture were purchased from Invitrogen and were endotoxin-free. F47 was tested for endotoxin content using the QCL1000 kit from BioWhittaker, Inc. Stock solutions of F47 were resuspended in DMSO/ethanol, 1/1 by volume, and added directly to the culture medium. Cells not receiving F47 were incubated in the corresponding volume of DMSO/ethanol.
For analysis by flow cytometry, HUVECs were serum starved for 15 hr in medium containing 5% FCS and treated with VEGF (50 ng/ml) in the presence or absence of F47 (10 μM for the same period of time). At the end of the incubation time, floating and adherent cells were collected in ice-cold PBS, stained with propidium iodine using the CycleTEST PLUS DNA Reagent kit (Becton Dickinson Biosciences) and processed for flow cytometric analysis using a Becton Dickinson Fluorescence Activated Cell Scanner (FACS). The percentage of cells with a sub-G1 DNA content was considered as the cell population that had undergone apoptosis. […]

BBCE cells = assay: bFGF-induced endothelial cell proliferation, analysis by cell counting; assay type: cell-based; conditions: 120 h, 2.5 ng/ml bFGF, cell counting on day 5 or 6, read-out: half-maximal concentration, inhibition of bFGF-induced proliferation of endothelial cells
Method: BBCE cells were seeded (day 0) in 12-well tissue culture plates at a density of 1250 cells/cm^2 (5000 cells/ml/well) and the following day (day 1), wells received 5 μl of the compound dilutions to be tested and 2.5 ng/ml bFGF. This treatment was repeated after two days (day 3). On day 5 or 6, cells in duplicate wells were trypsinized and counted using a Coulter particle counter. Ten dilutions were tested for each compound.
One of the main angiogenic endothelial cell responses is proliferation, in which the effect of F47 was examined. The effect of F47 on bFGF-induced endothelial cell proliferation was studied using cell counting, the results being shown in FIG. 1. […] F47 inhibited both bFGF- and VEGF-induced proliferation of endothelial cells with half-maximal concentrations of 3 and <1 μM, respectively.

A-431 tumors = assay: A-431 murine tumor xenograft model; assay type: in vivo, BALB/c nude mice
Method: To assess the in vivo antiangiogenic/antitumor activity of F47, female immunodeficient mice (5-8 week-old BALB/c nude mice, Charles River, Milan, Italy) were s.c. inoculated in the right flank with 10^7 A-431 cells in a volume of 50 μl (Morbidelli et al., Clinic Cancer Res, 2003; 9(14): 5358-69). After 9 days, when tumors reached a volume of 170 mm^3, animals were randomly assigned to 2 different experimental protocols (9-10 mice per group). Peritumor treatment with F47 (5 μg/day/mice) or vehicle started. The local peritumor treatment was performed at the dose of 5 μg/50 μl/mouse/day. The vehicle containing the same concentrations of solvents (1% ethanol+1% DMSO) was used as control. Daily treatment was performed for 10 consecutive days. Serial caliper measurements of perpendicular diameters were used to calculate tumor volume using the following formula: (shortest diameter×longest diameter×thickness of the tumor in mm). Data are reported as tumor volume in mm^3. Experiments have been performed in accordance with the guidelines of the European Economic Community for animal care and welfare (EEC Law No. 86/609) and National Ethical Committee. Animals were observed daily for signs of cytotoxicity and were sacrified by CO2 asphyxiation.
At day 10 animals were sacrificed and each tumor was immediately frozen in liquid nitrogen. Seven-μm-thick cryostat sections were stained with hematoxylin and eosin and adjacent sections were used for immunohistochemical staining with the anti-ED-B monoclonal antibody after fixation in absolute cold acetone.
FIG. 5 refers to the antitumor activity of F47 evaluated in nude mice inoculated with A-431 cells and treated after the onset of tumor growth (day 9 from inoculation, >150 mm^3 tumor volume). Peri-tumor treatment with F47 (5 μg/mice/day) or vehicle continued for 10 days. Data are reported as tumor volume in mm^3 (means±SEM of […]).

HUVEC = assay: VEGF-induced endothelial cell proliferation, analysis by Ki67 immunostaining; assay type: cell-based; conditions: Homo sapiens, HUVECs, VEGF 50 ng/ml, 6 hr, read-out: half-maximal concentration, inhibition of VEGF-induced proliferation of endothelial cells
Method: as §1
HUVECs (3×10^4) were grown on cover slips and serum starved in a medium containing 5% FCS for 12 hr. Cells were induced with VEGF (50 ng/ml) in the presence or absence of F47 (10 μM) for 6 hr, fixed in 3.7% paraformaldehyde and processed for indirect immunofluorescence using an anti-Ki67 antibody. Cells were counterstained with Hoechst 33342. […] Ki67 antigen is only expressed in active phases of the cell cycle, but not in G0 phase and the percentage of the Ki67-positive cells represents the proliferating population.
One of the main angiogenic endothelial cell responses is proliferation, in which the effect of F47 was examined. […]

COc1cc2c(cc1O)OCC(c1ccc(O)cc1)C2 (centres unmarked) [F47, 7,4′-dihydroxy-6-methoxy-isoflavan]
in vitro angiogenesis (tube formation) in 3D collagen cultures [1]: strongly inhibited | effect on VEGF-induced endothelial cell survival (HUVECs; VEGF 50 ng/ml): did not inhibit | level of apoptosis of serum-deprived HUVECs (toxic or apoptotic effects of the compound itself) (HUVECs; no VEGF): did not further increase | IC50 (BBCE cells): 3000 nM | survival of mice (A-431 tumors; day 8, peritumor 5 μg/day/mice): 78% | presence of tumor vasculature (anti-ED-B antibody staining of B-fibronectin) (A-431 tumors; day 10, peritumor 5 μg/day, tumor sections): absent | tumors smaller than in control mice (tumor volume) (A-431 tumors; peritumor 5 μg/day/mice, P<0.01 vs vehicle group at day 6 and 8, 4 animals/group): approximately 50% | IC50 (HUVEC): < 1000 nM
